In publication PMC6410080 (Viruses, 2019):
“And” between values parts separate entries of the source, which are not always exact repeats. Equal values may be shown once. Where a name gives a salt, the structure may show the parent alone. Read-outs that look alike come from different tables or passages of the source.

Experiments:
SFV [1] = test: microbe, parasite or virus in culture; format: cell-based, Semliki Forest virus; conditions: for % inhibition (SFV screen): 10 µM
DENV-2 = DENV-2 infection assay / secondary screen (E protein staining); format: cell-based, dengue virus serotype 2; conditions: for % inhibition (DENV-2 screen): 10 µM; for inhibition at 10 µM / IC50: Dengue virus, DENV2, Huh-7, 24 h; for inhibition at 10 µM: read-out: % inhibition (DENV-2 screen)
HeLa Kyoto cells [2] = conditions: 10 µM
Huh7 cells [3] = conditions: 10 µM
[4] = system: Renilla luciferase expression (protein synthesis); format: cell-based
in vitro [5] = conditions: human, % viability (SFV screen)
in vitro [6] = conditions: human
SINV = test: microbe, parasite or virus in culture; format: cell-based, Sindbis virus; conditions: Sindbis virus, HeLa Kyoto, read-out: IC50 SINV
DENV-1 = test: microbe, parasite or virus in culture; format: cell-based, dengue virus; conditions: Dengue virus, DENV1, Huh-7, read-out: IC50 DENV-1
DENV-3 = test: microbe, parasite or virus in culture; format: cell-based, dengue virus; conditions: Dengue virus, DENV3, Huh-7, read-out: IC50 DENV-3
ZIKV = test: microbe, parasite or virus in culture; format: cell-based, Zika virus; conditions: Zika virus, Huh-7, read-out: IC50 ZIKV
YF17D = test: organism not typed; format: cell-based, yellow fever 17D; conditions: Huh-7, read-out: IC50 YF17D
HCV = test: microbe, parasite or virus in culture; format: cell-based, hepatitis C virus; conditions: Hepatitis C virus, Huh7.5, read-out: IC50 HCV
VSV VLP = test: microbe, parasite or virus in culture; format: cell-based, vesicular stomatitis virus; conditions: Vesicular stomatitis virus, HeLa Kyoto, 24 h, read-out: IC50 VSV
RABV VLP = test: microbe, parasite or virus in culture; format: cell-based, rabies virus; conditions: Lyssavirus rabies, HeLa Kyoto, 24 h, read-out: IC50 RABV
H5N1 VLP = test: microbe, parasite or virus in culture; format: cell-based, influenza H5N1; conditions: Influenza A virus, H5N1, HeLa Kyoto, 48 h, read-out: IC50 H5N1
EBOV VLP = test: microbe, parasite or virus in culture; format: cell-based, Ebola virus; conditions: Zaire ebolavirus, HeLa Kyoto, 48 h, read-out: IC50 EBOV
HSV-1 = test: microbe, parasite or virus in culture; format: cell-based, herpes simplex virus 1; conditions: Human alphaherpesvirus 1, Vero, 8 h, read-out: IC50 HSV (Vero)
VACV = test: microbe, parasite or virus in culture; format: cell-based, vaccinia virus
SFV [7] = format: cell-based, Semliki Forest virus
viruses/VLPs tested = format: cell-based
HeLa Kyoto cells [8] = conditions: human
Huh7 cells [9] = test: MTT assay, Huh7 cells
[10] = Huh7, 24 h, compared to DMSO-treated controls
[11] = Huh7, MOI 1, 24 h, compared to DMSO-treated controls

Cl.Cn1c(CCCC(=O)O)nc2cc(N(CCCl)CCCl)ccc21 [Bendamustine hydrochloride]
% inhibition (SFV screen) (SFV [1]): 104.91% | % inhibition (DENV-2 screen) (DENV-2): 56.91% | % viability (SFV screen) (HeLa Kyoto cells [2]): 76.50% | % viability (DENV-2 screen) (Huh7 cells [3]; [10]): 85.62%

CC[C@H]1CN2CCc3cc(OC)c(OC)cc3[C@@H]2C[C@@H]1C[C@H]1NCCc2cc(OC)c(OC)cc21 [Emetine dihydrochloride hydrate]
inhibition at 10 µM (SFV [1]; Semliki Forest virus, M-HeLa, 7 h, read-out: % inhibition (SFV screen)): 104% | inhibition at 10 µM (DENV-2): 100% | Renilla signal (in words) [4]: significantly reduced the Renilla signal | viability at 10 µM (in vitro [5]): 104% | viability at 10 µM (in vitro [6]): 51.2%

COc1ccc(C[C@@H](C)NC[C@H](O)c2ccc(O)c(NC=O)c2)cc1.COc1ccc(C[C@@H](C)NC[C@H](O)c2ccc(O)c(NC=O)c2)cc1.O=C(O)/C=C/C(=O)O [Formoterol fumarate]
% inhibition (SFV screen) (SFV [1]): 86.74% | % inhibition (DENV-2 screen) (DENV-2): -41.42% | % viability (SFV screen) (HeLa Kyoto cells [2]; HeLa Kyoto, 7 h, compared to DMSO-treated controls, LOPAC and Prestwick samples listed separately): 97.47% | % viability (DENV-2 screen) (Huh7 cells [3]; [10]): 102.07%

Cl.Cl.Fc1ccc(C(OCCN2CCN(CCCc3ccccc3)CC2)c2ccc(F)cc2)cc1 [GBR 12909 dihydrochloride]
% inhibition (SFV screen) (SFV [1]): 75.39% | % inhibition (DENV-2 screen) (DENV-2; [11]): 83.87% | % viability (SFV screen) (HeLa Kyoto cells [2]): 90.30% | % viability (DENV-2 screen) (Huh7 cells [3]): 38.91%

CCOC(=O)N1CCN(/[N+]([O-])=N/Oc2ccc([N+](=O)[O-])cc2[N+](=O)[O-])CC1 [JS-K]
% inhibition (SFV screen) (SFV [1]): 84.89% | % inhibition (DENV-2 screen) (DENV-2; [11]): 84.24% | % viability (SFV screen) (HeLa Kyoto cells [2]): 66.74% | % viability (DENV-2 screen) (Huh7 cells [3]; [10]): 53.82%

O=C1c2c(O)ccc(O)c2C(=O)c2c(NCCNCCO)ccc(NCCNCCO)c21 [Mitoxantrone, Mitoxantrone dihydrochloride]
% inhibition (SFV screen) (SFV [1]): 59.01% and 85.19% | IC50 (SFV [1]; Semliki Forest virus, HeLa Kyoto, read-out: IC50 SFV (7 h)): 7 µM | inhibition at 10 µM (DENV-2): 99.4% | IC50 (DENV-2; read-out: IC50 DENV-2 (7 + 17 h)): 2 µM | IC50 (DENV-2; read-out: IC50 DENV-2 (24 h)): 2.1 µM | IC50 (SINV): 9.9 µM | IC50 (DENV-1): 5.6 µM | IC50 (DENV-3): 6.3 µM | IC50 (ZIKV): ~25 µM | IC50 (YF17D): 2.2 µM | IC50 (HCV): 2.7 µM | IC50 (VSV VLP): 0.6 µM | IC50 (RABV VLP): < 0.5 µM | IC50 (H5N1 VLP): 2.8 µM | IC50 (EBOV VLP): 0.1 µM | IC50 (HSV-1): 6.8 µM | IC50 VACV (VACV): No inhibition | Activity when added before SFV or 30 and 60 min after internalisation (SFV [7]): progressive and more dramatic decrease in activity | Time of Addition (SFV [7]): Before and after fusion | Viruses Inhibited (viruses/VLPs tested): Unclear pattern | TC50 SFV (7 h) (HeLa Kyoto cells [8]): 43.2 µM | TC50 SFV (7h) (HeLa Kyoto cells [8]): 43200 µM | % viability (SFV screen) (HeLa Kyoto cells [2]; human): 88.92% | viability at 10 µM (in vitro [5]): 88.5% | viability at 10 µM (in vitro [6]): 11.2% | TC50 DENV-2 (7 + 17 h) (Huh7 cells [9]; Huh7, compounds 7 h then compound-free media 17 h): 7.9 µM | TC50 DENV-2 (24 h) (Huh7 cells [9]; Huh7, compounds 24 h): 4.6 µM
